Source: patent publication US12227516B1, “Selective COX-2 inhibition of 2-(substituted benzyl)-3,5,6,7-tetrahydro-4H-cyclopenta[4,5]thieno[2,3-d]pyrimidin-4-ones and 4-fluoro-n-(4-oxo-3,5,6,7-tetrahydro-4H-cyclopenta[4,5]thieno[2,3-d]pyrimidin-2-yl)benzamide as anti-inflammatory agents” (KING FAISAL UNIVERSITY, priority 2023, dated 2025)

Tests used:
human recombinant COX-2 = molecular target: T1, human recombinant COX-2 (Homo sapiens, UniProt P35354); experiment: COX (ovine) Inhibitor Screening Assay, COX-2; assay type: biochemical; details: for IC50: human recombinant COX-2, PGF2α by EIA, 18 hours of incubation; for selectivity of inhibition, COX-2 versus COX-1, in words: ovine COX-1 versus human recombinant COX-2
T1 sequence (P35354 18-604): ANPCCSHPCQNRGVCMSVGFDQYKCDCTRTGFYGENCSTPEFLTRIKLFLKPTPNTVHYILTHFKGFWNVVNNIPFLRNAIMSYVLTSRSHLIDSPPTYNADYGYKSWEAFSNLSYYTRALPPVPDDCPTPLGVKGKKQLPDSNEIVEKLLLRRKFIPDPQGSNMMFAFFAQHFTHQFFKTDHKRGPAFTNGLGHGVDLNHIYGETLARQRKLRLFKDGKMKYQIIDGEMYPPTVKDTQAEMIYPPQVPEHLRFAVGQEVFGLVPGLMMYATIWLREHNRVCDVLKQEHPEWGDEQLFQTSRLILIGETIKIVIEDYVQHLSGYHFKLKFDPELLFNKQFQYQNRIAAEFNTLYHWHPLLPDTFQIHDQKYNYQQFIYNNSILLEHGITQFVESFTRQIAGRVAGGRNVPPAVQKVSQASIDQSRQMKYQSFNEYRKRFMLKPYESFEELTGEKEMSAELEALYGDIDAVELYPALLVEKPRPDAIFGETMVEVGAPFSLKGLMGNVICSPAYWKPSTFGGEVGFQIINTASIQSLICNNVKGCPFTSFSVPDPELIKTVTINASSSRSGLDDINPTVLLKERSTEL
Description: (§1) The COX (ovine) Inhibitor Screening Assay was performed mainly to determine the selective inhibition of tested compounds (6, 7, 8 and 9) towards the ovine COX-1 and human recombinant COX-2 isoenzymes. Adding arachidonic acid (AA) helped convert the COX component into PGG2, followed by a reduction of PGG2 into PGH2. The following addition of SnCl2 converted PGH2 into PGF2α. The assay directly measures the PGF2α via enzyme immunoassay (EIA) using a broadly specific antiserum that is bound to all PG tracers. Depending on the tested compounds inhibitory effect, the concentration of PGF2α in each well varied and was inversely proportional to the amount of PG tracers that were able to bind to the antiserum. PG tracers-antiserum complex was left to bind to the mouse monoclonal anti-rabbit antibody that had been coated to the well during the 18 hours of incubation. Ellman's reagent was added to give distinct yellow coloration to the products from this enzymatic reaction, which absorbed strongly at 412 nm. The intensity of the color was proportional to the amount of PG tracers-antiserum complex bound to the well, which was inversely proportional to the concentration of PGF2α present.
(§2) The inhibitory activity of tested compounds was determined based on IC50 values, whereas the selectivity was based on their selectivity indices (SI), which are defined as COX-1 IC50/COX-2 IC50. In the assay system, indomethacin was used as a non-selective COX inhibitor standard, while NS-398 was used as a COX-2 selective inhibitor standard.

ovine COX-1 = molecular target: T2, ovine COX-1 (Ovis aries, UniProt P05979); experiment: COX (ovine) Inhibitor Screening Assay, COX-1; assay type: biochemical; details: PGF2α by EIA, 18 hours of incubation
T2 sequence (P05979 25-600): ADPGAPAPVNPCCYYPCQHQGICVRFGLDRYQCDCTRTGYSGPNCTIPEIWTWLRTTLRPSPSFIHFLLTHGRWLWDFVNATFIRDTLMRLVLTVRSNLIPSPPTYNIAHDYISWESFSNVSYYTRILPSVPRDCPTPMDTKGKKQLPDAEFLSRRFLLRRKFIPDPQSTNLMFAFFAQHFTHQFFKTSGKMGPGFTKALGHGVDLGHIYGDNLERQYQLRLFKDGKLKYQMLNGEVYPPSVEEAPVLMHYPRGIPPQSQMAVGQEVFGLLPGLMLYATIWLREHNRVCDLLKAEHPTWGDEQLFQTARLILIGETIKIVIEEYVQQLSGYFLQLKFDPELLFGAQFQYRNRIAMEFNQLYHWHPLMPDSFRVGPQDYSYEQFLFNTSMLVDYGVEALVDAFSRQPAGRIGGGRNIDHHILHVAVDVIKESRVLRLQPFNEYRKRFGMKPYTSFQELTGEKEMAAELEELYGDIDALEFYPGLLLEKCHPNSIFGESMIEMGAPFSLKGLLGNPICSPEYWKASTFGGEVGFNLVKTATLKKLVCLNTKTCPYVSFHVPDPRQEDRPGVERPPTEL
Description: as §1, §2

Row | SI (selectivity index, COX-1 IC50/COX-2 IC50) (human recombinant COX-2) | IC50 (human recombinant COX-2) [µM] | selectivity of inhibition, COX-2 versus COX-1, in words (human recombinant COX-2) | IC50 (ovine COX-1) [µM] | Compound
1 | 0.68 | 56.4 | mild selective inhibition against COX-2 | 38.5 | O=c1[nH]c(Cc2ccc(F)cc2)nc2sc3c(c12)CCC3 [Compound 6, 2-(4-Fluorobenzyl)-3,5,6,7-tetrahydro-4H-cyclopenta[4,5]thieno[2,3-d]pyrimidin-4-one]
2 | 6.98 | 32.1 | mild selective inhibition against COX-2 | 224 | COc1ccc(Cc2nc3sc4c(c3c(=O)[nH]2)CCC4)cc1 [Compound 7, 2-(4-Methoxybenzyl)-3,5,6,7-tetrahydro-4H-cyclopenta[4,5]thieno[2,3-d]pyrimidin-4-one]
3 | 11.41 | 7.3 | mild selective inhibition against COX-2 | 83.8 | COc1ccc(-c2nc3sc4c(c3c(=O)[nH]2)CCC4)cc1 [Compound 8, 2-(4-Methoxyphenyl)-3,5,6,7-tetrahydro-4H-cyclopenta[4,5]thieno[2,3-d]pyrimidin-4-one]
4 | 1.26 | 54.9 | mild selective inhibition against COX-2 | 69.2 | O=C(Nc1nc2sc3c(c2c(=O)[nH]1)CCC3)c1ccc(F)cc1 [Compound 9, 4-Fluoro-N-(4-oxo-3,5,6,7-tetrahydro-4H-cyclopenta[4,5]thieno[2,3-d]pyrimidin-2-yl)benzamide]
